The assay has as its target T1, human follicle-stimulating hormone receptor (FSHR) (Homo sapiens, UniProt P23945).
T1 construct: host or cells: CHO-K1
T1 sequence (P23945 18-695): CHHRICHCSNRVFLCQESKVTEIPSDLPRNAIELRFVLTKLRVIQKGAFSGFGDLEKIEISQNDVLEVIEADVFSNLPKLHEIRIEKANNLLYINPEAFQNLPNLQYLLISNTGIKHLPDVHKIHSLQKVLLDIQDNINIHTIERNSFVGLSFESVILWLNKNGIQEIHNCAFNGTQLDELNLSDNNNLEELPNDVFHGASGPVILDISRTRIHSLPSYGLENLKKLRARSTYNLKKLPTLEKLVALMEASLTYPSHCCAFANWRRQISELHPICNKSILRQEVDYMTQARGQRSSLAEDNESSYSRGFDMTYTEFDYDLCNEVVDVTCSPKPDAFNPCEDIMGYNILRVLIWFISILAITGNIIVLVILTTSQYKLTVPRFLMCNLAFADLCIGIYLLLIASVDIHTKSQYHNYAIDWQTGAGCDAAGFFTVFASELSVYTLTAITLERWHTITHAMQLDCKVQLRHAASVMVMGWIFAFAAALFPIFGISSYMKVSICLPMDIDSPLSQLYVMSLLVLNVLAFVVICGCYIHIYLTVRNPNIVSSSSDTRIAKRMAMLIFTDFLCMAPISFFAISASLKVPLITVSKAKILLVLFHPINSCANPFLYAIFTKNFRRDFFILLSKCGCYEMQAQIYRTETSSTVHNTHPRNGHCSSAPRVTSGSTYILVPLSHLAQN
Kind of assay: Measurement of agonist cAMP production by activation of human FSHR. Particulars: CHO-K1 human FSHR cells, 30 minutes at 37° C., HTRF cAMP kit; read-out: hFSHR Agonist cAMP EC50. The format is cell-based. Here is the method: Measurement of agonist cAMP production by activation of human FSHR
Two days prior to the assay, 5,000 CHO—K1 human FSHR cells (Eurofins #95-0119C2) stably expressing the functional human follicle-stimulating hormone receptor were plated in a 96-well tissue culture-treated plate in growth media supplemented with the appropriate selection agent. […] The cells were incubated for 30 minutes at 37° C. (the final concentrations of the compound ranged from 0-10,000 nM). After the 30-minute incubation at 37° C., lysis buffer (HRTF CAMP kit, Cisbio #62AM5PEB)w as added directly to the cells and incubated for 30-minutes at room temperature. The diluted lysate was transferred and CAMP detection and visualization antibodies (HRTF CAMP kit, Cisbio #62AM5PEB) were added and incubated for 1-24 hours at room temperature. The time-resolved fluorescent signal was read with a Tecan M1000Pro (Tecan) multiplate reader. The intracellular cAMP concentrations were calculated by regression to a standard curve and were plotted vs. the concentration of the agonists. The concentration of test compound or FSH required to generate a half maximal response EC50 were calculated using standard curve-fitting methods. All data manipulations were performed using GraphPad Prism v9.3.1 (GraphPad, San Diego, CA).
Regarding `COc1cc2c(cc1-c1cccc(NC(=O)CCOCCNC(=O)CN3CCN(CC(=O)O)CCN(CC(=O)O)CCN(CC(=O)O)CC3)c1)-c1c(c(C(=O)N3CCOCC3(C)C)nn1-c1cc(Cl)cc(Cl)c1)CO2` [Compound 20, 2,2′,2″-(10-(2-((2-(3-((3-(1-(3,5-dichlorophenyl)-3-(3,3-dimethylmorpholine-4-carbonyl)-7-methoxy-1,4-dihydrochromeno[4,3-c]pyrazol-8-yl)phenyl)amino)-3-oxopropoxy)ethyl)amino)-2-oxoethyl)-1,4,7,10-tetraazacyclododecane-1,4,7-triyl)triacetic acid], the EC50 was under 0.01 µM.

As for `COc1cc2c(cc1-c1cccc(NC(=O)CCOCCOCCNC(=O)C3OC(CNC(=O)CN4CCN(CC(=O)O)CCN(CC(=O)O)CCN(CC(=O)O)CC4)C(O)C(O)C3O)c1)-c1c(c(C(=O)N3CCOCC3(C)C)nn1-c1cc(Cl)cc(Cl)c1)CO2` [Compound 21, 2,2′,2″-(10-(2-((((2S,3R,4R,5R,6S)-6-((2-(2-(3-((3-(1-(3,5-dichlorophenyl)-3-(3,3-dimethylmorpholine-4-carbonyl)-7-methoxy-1,4-dihydrochromeno|4,3-clpyrazol-8-yl)phenyl)amino)-3-oxopropoxy)ethoxy)ethyl)carbamoyl)-3,4,5-trihydroxytetrahydro-2H-pyran-2-yl)methyl)amino)-2-oxoethyl)-1,4,7,10-tetraazacyclododecane-1,4,7-triyl)triacetic acid], the EC50 is under 0.01 µM. Regarding `COc1cc2c(cc1-c1cccc(NC(=O)CN(C)C(=O)CN(C)C(=O)CN(C)C(=O)CN(C)C(=O)CN(C)C(=O)CCNC(=O)CN3CCN(CC(=O)O)CCN(CC(=O)O)CCN(CC(=O)O)CC3)c1)-c1c(c(C(=O)N3CCOCC3(C)C)nn1-c1cc(Cl)cc(Cl)c1)CO2` [Compound 22], the half-maximal effective concentration (EC50) was under 0.01 µM. To `COc1cc2c(cc1-c1cccc(NC(=O)NCCNC(=O)[C@H](N)CCCCNC(=O)CN3CCN(CC(=O)O)CCN(CC(=O)O)CCN(CC(=O)O)CC3)c1)-c1c(c(C(=O)N3CCOCC3(C)C)nn1-c1cc(Cl)cc(Cl)c1)CO2` [Compound 23A, indium (III) (R)-2,2′,2″-(10-(2-((5-amino-6-((2-(3-(3-(1-(3,5-dichlorophenyl)-3-(3,3-dimethylmorpholine-4-carbonyl)-7-methoxy-1,4-dihydrochromeno[4,3-c]pyrazol-8-yl)phenyl)ureido)ethyl)amino)-6-oxohexyl)amino)-2-oxoethyl)-1,4,7,10-tetraazacyclododecane-1,4,7-triyl)triacetate] belongs 0.01 to 0.1 µM; to `COc1cc2c(cc1-c1cccc(NC(=O)NCCNC(=O)[C@H](N)CCCCNC(=O)CN3CCN(CC(=O)O)CCN(CC(=O)O)CCN(CC(=O)O)CC3)c1)-c1c(c(C(=O)N3CCOCC3(C)C)nn1-c1cc(Cl)cc(Cl)c1)CO2` [Compound 23], under 0.01 µM. Next, `COc1cc2c(cc1-c1cccc(NC(=O)NCCNc3c(NCCNC(=O)CN4CCN(CC(=O)O)CCN(CC(=O)O)CCN(CC(=O)O)CC4)c(=O)c3=O)c1)-c1c(c(C(=O)N3CCOCC3(C)C)nn1-c1cc(Cl)cc(Cl)c1)CO2` [Compound 24, 2,2′,2″-(10-(2-((2-((2-((2-(3-(3-(1-(3,5-dichlorophenyl)-3-(3,3-dimethylmorpholine-4-carbonyl)-7-methoxy-1,4-dihydrochromeno|4,3-c|pyrazol-8-yl)phenyl)ureido)ethyl)amino)-3,4-dioxocyclobut-1-en-1-yl)amino)ethyl)amino)-2-oxoethyl)-1,4,7,10-tetraazacyclododecane-1,4,7-triyl)triacetic acid]: 0.01 to 0.1 µM; `COc1cc2c(cc1-c1cccc(NC(=O)NCCNc3c(NCCNC(=O)CN4CCN(CC(=O)O)CCN(CC(=O)O)CCN(CC(=O)O)CC4)c(=O)c3=O)c1)-c1c(c(C(=O)N3CCOCC3(C)C)nn1-c1cc(Cl)cc(Cl)c1)CO2` [Compound 24A, indium (III) 2,2′,2″-(10-(2-((2-((2-((2-(3-(3-(1-(3,5-dichlorophenyl)-3-(3,3-dimethylmorpholine-4-carbonyl)-7-methoxy-1,4-dihydrochromeno[4,3-c]pyrazol-8-yl)phenyl)ureido)ethyl)amino)-3,4-dioxocyclobut-1-en-1-yl)amino)ethyl)amino)-2-oxoethyl)-1,4,7,10-tetraazacyclododecane-1,4,7-triyl)triacetate]: under 0.01 µM.

Consider `COCCOCCOCCOCCOCCOCCC(=O)N[C@H](CC(=O)N1CC2(CCCN2C(=O)CNC(=O)CN2CCN(CC(=O)O)CCN(CC(=O)O)CCN(CC(=O)O)CC2)C1)C(=O)Nc1cccc(-c2cc3c(cc2OC)OCc2c(C(=O)N4CCOCC4(C)C)nn(-c4cc(Cl)cc(Cl)c4)c2-3)c1` [Compound 25, (R)-2,2′,2″-(10-(2-((2-(2-(22-((3-(1-(3,5-dichlorophenyl)-3-(3,3-dimethylmorpholine-4-carbonyl)-7-methoxy-1,4-dihydrochromeno[4,3-c]pyrazol-8-yl)phenyl)carbamoyl)-20-oxo-2,5,8,11,14,17-hexaoxa-21-azatetracosan-24-oyl)-2,5-diazaspiro[3.4]octan-5-yl)-2-oxoethyl)amino)-2-oxoethyl)-1,4,7,10-tetraazacyclododecane-1,4,7-triyl)triacetic acid], for which the EC50 was over 0.1 µM. To `COc1cc2c(cc1-c1cccc(NC(=O)CCOCCOCCOCCOCCNC(=O)[C@@H](CS(=O)(=O)O)NC(=O)CN3CCN(CC(=O)O)CCN(CC(=O)O)CCN(CC(=O)O)CC3)c1)-c1c(c(C(=O)N3CCOCC3(C)C)nn1-c1cc(Cl)cc(Cl)c1)CO2` [Compound 26, (S)-2,2′,2″-(10-(21-((3-(1-(3,5-dichlorophenyl)-3-(3,3-dimethylmorpholine-4-carbonyl)-7-methoxy-1,4-dihydrochromeno[4,3-c]pyrazol-8-yl)phenyl)amino)-2,5,21-trioxo-4-(sulfomethyl)-9,12,15,18-tetraoxa-3,6-diazahenicosyl)-1,4,7,10-tetraazacyclododecane-1,4,7-triyl)triacetic acid] belongs under 0.01 µM; to `COc1cc2c(cc1-c1cccc(NC(=O)CCOCCOCCOCCOCCNC(=O)[C@H](CS(=O)(=O)O)NC(=O)CN3CCN(CC(=O)O)CCN(CC(=O)O)CCN(CC(=O)O)CC3)c1)-c1c(c(C(=O)N3CCOCC3(C)C)nn1-c1cc(Cl)cc(Cl)c1)CO2` [Compound 26A, indium (III) (R)-2,2′,2″-(10-(21-((3-(1-(3,5-dichlorophenyl)-3-(3,3-dimethylmorpholine-4-carbonyl)-7-methoxy-1,4-dihydrochromeno[4,3-c]pyrazol-8-yl)phenyl)amino)-2,5,21-trioxo-4-(sulfomethyl)-9,12,15, 18-tetraoxa-3,6-diazahenicosyl)-1,4,7,10-tetraazacyclododecane-1,4,7-triyl)triacetate], under 0.01 µM.

On to `COc1cc2c(cc1-c1cccc(NC(=O)CCOCCOCCOCCOCCNC(=O)[C@@H](CCC(=O)O)NC(=O)CN3CCN(CC(=O)O)CCN(CC(=O)O)CCN(CC(=O)O)CC3)c1)-c1c(c(C(=O)N3CCOCC3(C)C)nn1-c1cc(Cl)cc(Cl)c1)CO2` [Compound 27, (R)-2,2′,2″-(10-(4-(2-carboxyethyl)-21-((3-(1-(3,5-dichlorophenyl)-3-(3,3-dimethylmorpholine-4-carbonyl)-7-methoxy-1,4-dihydrochromeno|4,3-clpyrazol-8-yl)phenyl)amino)-2,5,21-trioxo-9,12,15,18-tetraoxa-3,6-diazahenicosyl)-1,4,7,10-tetraazacyclododecane-1,4,7-triyl)triacetic acid], for which the EC50 was under 0.01 µM.

Usually EC50 stands for the midpoint of the concentration-response curve.

The record behind these values is US20260137819A1 (Radionetics Oncology, Inc., priority 2022, published 2026).
